SMILES strings stand for the structures.

Test [1] deals with D. immitis microfilariae. The test is described as follows: Dog heart worm microfilariae motility assay. Format: cell-based. Conditions: Dirofilaria immitis, read-out: EC50 (motility inhibition).
Test [2] relates to H. contortus larvae. The test is described as follows: H. contortus Larval Development Assay (Hc LDA). Particulars: Haemonchus contortus, read-out: EC50 (motility inhibition).
Method: Ruminant Gastrointestinal (H. contortus Larval Development Assay (Hc LDA)):
H.c. eggs isolated from lamb fecal matter are allowed to hatch overnight. Test compounds are diluted in DMSO and added to a 96-well plate containing appropriate media. H.c. larvae are added to each well and plates are incubated for the desired time(s). Motility is assessed using an LCD camera imaging system. Percent motility inhibition values are generated relative to the average of the DMSO-only wells.

What is called EC50 is the concentration at which the effect is half-maximal. In the case of `CN(C)c1c(C(=O)NN2CCOc3ccccc32)cnc2c(-c3cc(Cl)cc(Cl)c3)nccc12` [Example 2.1, 8-(3,5-dichlorophenyl)-N-(2,3-dihydro-1,4-benzoxazin-4-yl)-4-(dimethylamino)-1,7-naphthyridine-3-carboxamide], the EC50 in test [1] was less than 0.1 µg/mL; in test [2], less than 1 µg/mL.

Regarding `CN(C)c1c(C(=O)NN2CCCc3ccccc32)cnc2c(-c3cc(Cl)cc(Cl)c3)nccc12` [Example 2.2, 8-(3,5-dichlorophenyl)-N-(3,4-dihydro-2H-quinolin-1-yl)-4-(dimethylamino)-1,7-naphthyridine-3-carboxamide], the EC50 is less than 0.1 µg/mL in test [1] and less than 1 µg/mL in test [2].

Take `O=C(NN1CCOc2ccccc21)c1cnc2c(-c3cc(Cl)cc(Cl)c3)nccc2c1N1CCOCC1` [Example 2.3, 8-(3,5-dichlorophenyl)-N-(2,3-dihydro-1,4-benzoxazin-4-yl)-4-morpholino-1,7-naphthyridine-3-carboxamide]: the EC50 in test [1] is less than 0.1 µg/mL; in test [2] it was less than 1 µg/mL.

Take `O=C(NN1CCOc2ccccc21)c1cnc2c(-c3cc(F)cc(F)c3F)nccc2c1N1CCOCC1` [Example 2.4, N-(2,3-dihydro-1,4-benzoxazin-4-yl)-4-morpholino-8-(2,3,5-trifluorophenyl)-1,7-naphthyridine-3-carboxamide]: the concentration giving a half-maximal response (EC50) in test [1] was less than 0.1 µg/mL; in test [2] it was less than 1 µg/mL.

Turning to `CON(C)c1c(C(=O)NN2CCOc3ccccc32)cnc2c(-c3cc(F)cc(F)c3F)nccc12` [Example 2.5, N-(2,3-dihydro-1,4-benzoxazin-4-yl)-4-[methoxy(methyl)amino]-8-(2,3,5-trifluorophenyl)-1,7-naphthyridine-3-carboxamide], the EC50 in test [1] was less than 0.1 µg/mL; in test [2], less than 1 µg/mL.

In the case of `O=C(NN1CCOc2ccccc21)c1cnc2c(-c3cc(Cl)cc(C(F)(F)F)c3)nccc2c1N1CCOCC1` [Example 2.6, 8-[3-chloro-5-(trifluoromethyl)phenyl]-N-(2,3-dihydro-1,4-benzoxazin-4-yl)-4-morpholino-1,7-naphthyridine-3-carboxamide], the EC50 is less than 0.1 µg/mL in test [1] and less than 1 µg/mL in test [2].

With `O=C(NN1CCOc2ccccc21)c1cnc2c(-c3cccc(Cl)c3Cl)nccc2c1N1CCOCC1` [Example 2.7, N-(2,3-dihydro-1,4-benzoxazin-4-yl)-4-morpholino-8-(2,3-dichlorophenyl)-1,7-naphthyridine-3-carboxamide], the 50% effective concentration (EC50) in test [1] was less than 0.1 µg/mL.

For `O=C(NN1CCOc2ccccc21)c1cnc2c(-c3cc(Cl)c(F)c(Cl)c3)nccc2c1N1CCOCC1` [Example 2.8, 8-(3,5-dichloro-4-fluoro-phenyl)-N-(2,3-dihydro-1,4-benzoxazin-4-yl)-4-morpholino-1,7-naphthyridine-3-carboxamide], the EC50 is less than 0.1 µg/mL in test [1] and less than 1 µg/mL in test [2].

On to `CN(C)c1c(C(=O)NN2CCOc3ccccc32)cnc2c(-c3cc(Cl)cc(Cl)c3)ccnc12` [Example 3.1, 8-(3,5-dichlorophenyl)-N-(2,3-dihydro-1,4-benzoxazin-4-yl)-4-(dimethylamino)-1,5-naphthyridine-3-carboxamide], for which the concentration giving a half-maximal response (EC50) in test [1] was less than 0.1 µg/mL; in test [2] it was less than 1 µg/mL.

Consider `CN(C)c1c(C(=O)NN2CCOc3ccccc32)cnc2c(-c3cccc(Cl)c3Cl)ccnc12` [Example 3.2, 8-(2,3-dichlorophenyl)-N-(2,3-dihydro-1,4-benzoxazin-4-yl)-4-(dimethylamino)-1,5-naphthyridine-3-carboxamide], for which the results for the half-maximal effective concentration (EC50) in test [1] and in test [2] were less than 0.1 µg/mL and less than 1 µg/mL, respectively.

For `O=C(NN1CCOc2ccccc21)c1cnc2c(-c3cc(Cl)cc(Cl)c3)ccnc2c1N1CCOCC1` [Example 3.3, 8-(3,5-dichlorophenyl)-N-(2,3-dihydro-1,4-benzoxazin-4-yl)-4-morpholino-1,5-naphthyridine-3-carboxamide], the concentration for a half-maximal effect (EC50) in test [1] was less than 0.1 µg/mL; in test [2], less than 1 µg/mL.

With `O=C(NN1CCOc2ccccc21)c1cnc2c(-c3cc(F)cc(F)c3F)ccnc2c1N1CCOCC1` [Example 3.4, N-(2,3-dihydro-1,4-benzoxazin-4-yl)-4-morpholino-8-(2,3,5-trifluorophenyl)-1,5-naphthyridine-3-carboxamide], the 50% effective concentration (EC50) was less than 0.1 µg/mL in test [1] and less than 1 µg/mL in test [2].

`CN(C)c1c(C(=O)NN2CCOc3ccccc32)ccc2c(-c3cc(Cl)cc(Cl)c3)cccc12` [Example 4.1, 5-(3,5-dichlorophenyl)-N-(2,3-dihydro-1,4-benzoxazin-4-yl)-1-(dimethylamino)naphthalene-2-carboxamide]: the concentration for a half-maximal effect (EC50) is less than 0.1 µg/mL in test [1] and less than 1 µg/mL in test [2].

For the compound `CN(C)c1c(C(=O)NN2CCOc3ccccc32)cnc2c(-c3cc(Cl)cc(Cl)c3)cccc12` [Example 5.1, 8-(3,5-dichlorophenyl)-N-(2,3-dihydro-4H-benzo[b][1,4]oxazin-4-yl)-4-(dimethylamino)quinoline-3-carboxamide], the half-maximal effective concentration (EC50) is less than 0.1 µg/mL in test [1] and less than 1 µg/mL in test [2].

As to `O=C(NN1CCOc2ccccc21)c1cnc2c(-c3cccc(Cl)c3Cl)cccc2c1N1CCOCC1` [Example 5.2, 8-(2,3-dichlorophenyl)-N-(2,3-dihydro-1,4-benzoxazin-4-yl)-4-morpholino-quinoline-3-carboxamide], the figures for the half-maximal effective concentration (EC50) in test [1] and in test [2] were less than 0.1 µg/mL and less than 1 µg/mL, respectively.

Take `O=C(NN1CCOc2ccccc21)c1cnc2c(-c3cc(Cl)cc(Cl)c3)cccc2c1N1CCOCC1` [Example 5.3, 8-(3,5-dichlorophenyl)-N-(2,3-dihydro-1,4-benzoxazin-4-yl)-4-morpholino-quinoline-3-carboxamide]: the 50% effective concentration (EC50) in test [1] is less than 0.1 µg/mL; in test [2] it was less than 1 µg/mL.

Turning to `O=C(NN1CCOc2ccccc21)c1cnc2c(-c3cc(F)cc(F)c3F)c(F)ccc2c1N1CCOCC1` [Example 5.4, N-(2,3-dihydro-1,4-benzoxazin-4-yl)-7-fluoro-4-morpholino-8-(2,3,5-trifluorophenyl)quinoline-3-carboxamide], the concentration for a half-maximal effect (EC50) in test [1] is less than 0.1 µg/mL; in test [2], less than 1 µg/mL.

On to `O=C(NN1CCOc2ccccc21)c1cnc2c(-c3cc(F)cc(F)c3F)cccc2c1N1CCOCC1` [Example 5.6, N-(2,3-dihydro-1,4-benzoxazin-4-yl)-4-morpholino-8-(2,3,5-trifluorophenyl)quinoline-3-carboxamide], for which the 50% effective concentration (EC50) in test [1] was less than 0.1 µg/mL; in test [2], less than 1 µg/mL.

Regarding `O=C(NN1CCOc2ccccc21)c1cnc2c(-c3cc(Cl)cc(Cl)c3)c(F)ccc2c1N1CCOCC1` [Example 5.7, 8-(3,5-dichlorophenyl)-N-(2,3-dihydro-1,4-benzoxazin-4-yl)-7-fluoro-4-morpholino-quinoline-3-carboxamide], the EC50 was less than 0.1 µg/mL in test [1] and less than 1 µg/mL in test [2].

For `O=C(NN1CCOc2ccccc21)c1cnc2c(-c3cc(F)cc(F)c3)c(F)ccc2c1N1CCOCC1` [Example 5.8, 8-(3,5-difluorophenyl)-N-(2,3-dihydro-1,4-benzoxazin-4-yl)-7-fluoro-4-morpholino-quinoline-3-carboxamide], the EC50 in test [1] was less than 0.1 µg/mL; in test [2] it was less than 1 µg/mL.

On to `O=C(NN1CCOc2ccccc21)c1cnc2c(-c3cc(Cl)nc(C(F)(F)F)c3)cccc2c1N1CCOCC1` [Example 5.11, 8-[2-chloro-6-(trifluoromethyl)-4-pyridyl]-N-(2,3-dihydro-1,4-benzoxazin-4-yl)-4-morpholino-quinoline-3-carboxamide], for which the EC50 in test [1] was less than 0.1 µg/mL; in test [2], less than 1 µg/mL.

These data come from patent US12448391B2, “Bicyclic derivatives for treating endoparasites” (Elanco Tiergesundheit AG, priority 2019, dated 2025).
